Laboratory results reported in patent publication US20220054543A1, “Enteric Use of Potassium Permanganate in Humans and Animals” (priority 2020, published 2022).

System: common human coronaviruses (229E, NL63, OC43, and HKU1)
Experiment: enteric administration to humans, treating common human coronavirus infections
Type: in vivo

Measured: effective in treating infections resulting from the common human coronaviruses

Potassium permanganate
effective: adult humans, inhalation by cold-mist inhaler or nebulizer, 3.0 ml of 1:10,000 dilution (0.1 mg/mL solution) per day for three days | adult humans, inhalation by cold-mist inhaler or nebulizer, 3.0 ml of 1:50,000 dilution (0.02 mg/mL solution) per day for three days | adult humans, inhalation by cold-mist inhaler or nebulizer, 3.0 ml of 1:100,000 dilution (0.01 mg/mL solution) per day for three days | humans, intravenous, 10.0 cc per 45.4 kg of 1:10,000 dilution (0.1 mg/mL solution) per day for three days | humans, intravenous, 10.0 cc per 45.4 kg of 1:50,000 dilution (0.02 mg/mL solution) per day for three days | humans, intravenous, 10.0 cc per 45.4 kg of 1:100,000 dilution (0.01 mg/mL solution) per day for three days | humans, oral, 1 mg/kg per day for three days | humans, oral, 1 mg/kg per day on a daily basis (prophylactic) | humans, oral, 5 mg/kg per day for three days | humans, oral, 10 mg/kg per day for three days
